Data as given in US5962415A, “Compositions comprising a peptide inhibitor of nuclear protein translocation and an immunosuppressant and methods of use thereof” (Bristol-Myers Squibb Co., priority 1998, dated 1999).

How the values were obtained:
[1] = system: 70Z/3 murine leukemia pre-B cells; assay: LPS-stimulated surface antigen expression (κ Ig light chain, IL-2 receptor, CD45) in 70Z/3 cells; assay type: cell-based; conditions: dose-response data, FIG. 1B
Description: Expression of κ Ig, CD45, CD40, and the interleukin-2 receptor was assayed using standard enzyme-linked immunosorbent assays ("ELISAs") (see, Coligan et al. (eds.) (1991) Current Protocols in Immunology, Wiley & Sons, p. 2.10 or by FACS staining to measure cell-surface markers as described in Raff (1970) Immunology 19:637). Antibodies form cell surface markers were obtained from Pharmingen Co.
The effect of the SV40MEM polypeptide was compared with two additional polypeptides, […] (SEQ ID NO:2) (the "HIV-1MEM" polypeptide), which is composed of the membrane translocation domain of FGF flanked by the NLS from the HIV-1 matrix protein and […] (SEQ ID NO:3) (the "C-MYCMEM" polypeptide), which contains the NLS from the human c-myc oncoprotein (Chelsky et al. (1989), supra, and Dang et al. (1988), supra) using murine 70Z/3 pre-B cells.
Murine 70Z/3 cells (ATCC TlD-158) are a model cell line for analyzing the effects of compounds on B-cell differentiation. In response to S. typhosa LPS (Difco) or γ-interferon, these cells differentiate from surface κ immunoglobulin negative to κ Ig positive.
[…] of: (1) a peptide containing only the FGF signal sequence AAVALLPAVLLALLAP (SEQ ID NO:4) (the "MEM" peptide); (2) a polypeptide having the FGF signal sequence and the NLS of NF-κB p50 on the carboxy terminus of the signal sequence, namely, the NF-κBMEM polypeptide; (3) the SV40MEM polypeptide comprised of L-amino acids; or (4) the SV40MEM polypeptide comprised of D-amino acids. The cells were then incubated with LPS as described in Example 2 and assayed for expression of κ light chain expression.

[2] = system: Splenic T-cells from BALB/c mice; assay: Mouse splenic T-cell proliferation ([3H]-thymidine); assay type: cell-based; conditions: 0.5 or 2.0 μM, FIG. 16
Description: Splenic T-cells from BALB/c mice were isolated by glass wool chromatography and treated with either 0.5 or 2.0 μM peptide in 96 well plates for 2 hours followed by activation with either anti-CD3 alone ([…]), PMA alone (1 ng/ml), anti-CD3 plus anti-CD28 ([…] each) or anti-CD28 plus PMA ([…] and 1 ng/ml, respectively). Plates were coated with antibody 24 hours prior to activation. Proliferation was determined after 72 hours by pulsing for 8 hours with [^3 H]-thymidine, and determining radioactivity incorporated into DNA.

CD14 = assay: LPS binding to CD14 (plate assay with soluble CD14 Ig); conditions: E. coli AO16 LPS, 2 hours at 4° C., FIG. 14
Description: 96-well plates were coated with goat-anti human Ig, soluble CD-1 4 Ig was added, and the plates were incubated overnight at 4° C. The BMS polypeptide, the C-MYCMEM polypeptide, an SV40 NLS polypeptide containing a single SV40 large T-antigen NLS, a c-myc NLS without a translocation sequence (AKRVKL (SEQ ID NO:6)), a control non-NLS polypeptide, 377G, or PBS, were added to the plates and the plates were incubated for 5 min. E. coli AO16 LPS was then added to the plates and the plates were incubated for 2 hours at 4° C. The plates were washed and LPS was detected using 0.5 μg/ml mouse anti-E. coli LPS, followed by goat anti-mouse horseradish peroxidase.

[3] = system: BALB/c mice immunized with KLH; assay: Anti-hemocyanin (KLH) response in mice; assay type: in vivo; conditions: 5 mg/kg day 0 plus 5 doses every other day, serum day 14, FIG. 12
Description: Female BALB/c mice (8 weeks of age) were immunized by intraperitoneal injection of 25 μg keyhole limpet (Megathura crenulata) hemocyanin ("KLH") (Pacific Bio-Marine Laboratories, Venice, Calif.) without adjuvant on day 0. Mice were divided into groups of five and inhibitory peptides C-MYCMEM and BMS-205820 ([…] (SEQ ID NO:24)), which is identical to the SV40MEM polypeptide with the exception that the polypeptide lacks the C-terminal cysteine, were administered on day 0 at 5 mg/kg, followed by 5 subsequent doses of the same concentration every other day. Control mice were treated with a single 200-μg dose of Chimeric L6 antibody ("Chi L6"). After 14 days, the mice were bled from the orbital sinus and the level of anti-KLH antibodies were measured in the serum by ELISA as described in Example 11.

Q: Which “efficacy at inhibiting κ Ig light chain production (comparison of three polypeptides)” value [1] does the source give for “AKRVKLAAVALLPAVLLALLAKRVKLC [C-MYCMEM, contains the NLS from the human c-myc oncoprotein]” here?
A: Its value is “approximately equally efficacious”.

Q: And the “potency at inhibiting κ Ig light chain production compared with SV40MEM” value [1]?
A: Its value is “not as potent”.

Q: And the T cell proliferation ([2]; stimulated with PMA + anti-CD28, 2 hours pretreatment)?
A: Its T cell proliferation is “inhibited”.

Q: What about the T cell proliferation ([2]; stimulated with anti-CD3 + anti-CD28, 2 hours pretreatment) of the same sequence?
A: The T cell proliferation was “augmentation of proliferation”.

Q: And the “binding of LPS to CD14” value (CD14)?
A: The value was “block it from binding CD14”.

Q: And the “specific anti-KLH response” value [3]?
A: Its value is “inhibited”.
